The record followed here is patent publication US20230028880A1, “CD38-BINDING AGENTS AND USES THEREOF” (Biohaven Therapeutics Ltd., priority 2019, published 2023).

“And” between values parts separate entries of the source, which are not always exact repeats. Equal values may be shown once. *1 amine or outer side, *2 acyl side, *3 side chain or, on linkers, in order; H or OH if unused. Bridges are numbered along the chain shown (N, C = ends). Where no end group is shown, it is not given here. [ ]: non-standard residue; d: D form. d(γGlu) = O=C(O)[C@@H](CCC(=O)[*:2])N[*:1]; 12Ado = NCCCCCCCCCCCC(=O)O

The test system of assay [1] is Effector cells (ADCC reporter cells) with Daudi cells. Put plainly: ADCC reporter assay: Daudi cells, IVIG and ADCC reporter effector cells (luciferase, RLU). The assay is classed as cell-based. Particulars: IVIG; for Luminescence, ADCC reporter assay: 18 h, duplicate columns. The protocol:
Daudi (ATCC CCL-213) cells were resuspended in Opti-MEM (Thermo Fisher Scientific #31985070), counted (Life Technologies Countless II cell counter) and plated (5,000 cells in 25 uL/well; Corning plates: 3917). Compounds w diluted in DMSO (MP 191418) to 1000× the starting concentration used in the assay into a 96 well polypropylene plate (Corning 3357). They were then serially diluted in ½ log increments to generate 8 concentrations in DMSO (assay dependent). These DMSO stocks were then step diluted 1/250 into Opti-MEM. Step diluted compound range was then added into the polypropylene assay plate 25 uL/well. The human antibody solution (Grifols IVIG Fleogogamma #61953-0005-2) was diluted to 40 ug/mL and added 25 uL/well. Effector cells (ADCC reporter cells—Promega kit: G7018) were added 37,500 in 25 uL/well. The assay was then incubated 18 h at 37° C. Following the induction period, the plate was equilibrated to 25° C. followed the addition of the luciferase substrate (75 uL/well, 1 vial in 10 mL of Bio-Glo assay buffer, Promega kit: G7018). The luminescence was measured (Biotek Synergy H1 microplate reader).

The next assay has as its system Daudi cells. Put plainly: Ternary binding assay: recruitment of PE-labeled human IgG1k to Daudi cells (flow cytometry, MFI). The assay is classed as cell-based. The following applies: duplicate columns. The protocol:
Various technologies can be utilized to assess and/or characterize recruitment of antibodies to target cells, e.g., cancer cells. One such assay is a ternary binding assay. An exemplary protocol is described herein. Compounds were diluted in DMSO (MP 191418) to 1000× the starting concentration used in the assay into a 96 well polypropylene plate (Corning 3357). They were then serially diluted in ½ log increments to generate 8-12 concentrations in DMSO (assay dependent). These DMSO stocks were then step diluted 1/100 into PBS (VWR Cat. #20012043). Step diluted compound range was then added into the polypropylene assay plate 1/10 the volume of the assay volume. Daudi (ATCC CCL-213), a non-adherent cell line, were counted and centrifuged and resuspended at a concentration of 100,000 cells per 90 ul in Flow buffer: 1% BSA (American Bio AB01088-00100); 0.5 mM EDTA (VWR 45001-122); PBS (VWR Cat. #20012043) with 11.1 ug/mL human IgG1k Phycoerythrin labeled (SouthernBiotech #0151K-09 PE). The cells were then added into the polypropylene plate with the step diluted compounds and incubated at 37° C. for 30 min. At the end of the incubation, the cells were centrifuged and washed 2× with How buffer containing 0.5% Tween 20 (BP337-500). Samples were analyzed on a BD FacsCelesta. Mean fluorescence was analyzed using Graphpad Prism and curves were fit using log(inhibitor) vs. response—Variable slope (four parameters).
For orientation: A flow cytometer gives signals particle by particle.

The target in assay [2] is CD38 on Daudi cells (human) (UniProt P28907). The assay is described as follows: ternary binding, flow cytometry: Daudi cells + PE human IgG1k.

In general, EC50 refers to the concentration that produces a half-maximal response.

For `CCCCC[C@@H]1NC(=O)[C@H](CCCNC(=N)N)NC(=O)[C@H](C)NC(=O)CSC[C@@H](C(=O)NCCOCCOCCOCCOCCOCCOCCOCCOCCC(=O)NCCOCCOCCOCCOCCOCCOCCOCCOCCC(=O)N[C@@H](CC(=O)O)C(=O)N[C@H]2CSSC[C@@H](C(=O)N[C@H](C(=O)O)[C@@H](C)O)NC(=O)[C@H](Cc3c[nH]c4ccccc34)NC(=O)[C@H](C(C)C)NC(=O)[C@H](CC(C)C)NC(=O)[C@H](CCC(=O)O)NC(=O)CNC(=O)[C@H](CC(C)C)NC(=O)[C@H](Cc3c[nH]cn3)NC(=O)[C@H](Cc3c[nH]c4ccccc34)NC(=O)[C@H](C)NC2=O)NC(=O)[C@H](CC(=O)O)NC(=O)[C@H](CCCCC)NC(=O)[C@H](Cc2ccc(-c3ccccc3)cc2)NC(=O)[C@H](CC(C)C)NC(=O)[C@H](C(C)C)NC(=O)[C@H](CC(N)=O)NC(=O)[C@H](CC(=O)O)NC(=O)[C@H](Cc2c[nH]cn2)NC(=O)[C@H](Cc2ccc(O)cc2)NC1=O` [I-42], in assay [1] (ADCC reporter assay), the EC50 amounted to 1.4 nM. Also, the “Luminescence, ADCC reporter assay” value in assay [1] (compound 0.3 nM) was 4468 RLU and 4661 RLU; in assay [1] (compound 1 nM) it was 13795 RLU and 13686 RLU; in assay [1] (compound 3 nM), 20721 RLU and 20652 RLU; in assay [1] (compound 10 nM), 32317 RLU and 32373 RLU; in assay [1] (compound 30 nM), 36909 RLU and 40202 RLU; in assay [1] (compound 100 nM), 40344 RLU and 39296 RLU. The “Luminescence, ADCC reporter assay” value was 39826 RLU and 37835 RLU in assay [1] (compound 300 nM); 27516 RLU and 28425 RLU in assay [1] (compound 1000 nM). Also, the “MFI, recruitment of PE-labeled human IgG1k to Daudi cells” value (“MFI, recruitment” for short) was 7077 and 5990 in the assay with Daudi cells (compound 0.03 nM); 5737 and 4704 in the assay with Daudi cells (compound 0.1 nM); 3879 and 4284 with Daudi cells (compound 0.3 nM); 4981 and 6900 with Daudi cells (compound 1 nM); 6000 and 5101 in the assay with Daudi cells (compound 3 nM); 6189 and 11302 with Daudi cells (compound 10 nM). In addition, the “MFI, recruitment” value with Daudi cells (compound 30 nM) was 9700 and 15077; with Daudi cells (compound 100 nM) it was 16690 and 17157; in the assay on Daudi cells (compound 300 nM), 14190 and 18622; with Daudi cells (compound 1000 nM), 20476 and 15023; in the assay with Daudi cells (compound 3000 nM) it was 13519 and 15909.
For `CCCCC[C@@H]1NC(=O)[C@H](CCCNC(=N)N)NC(=O)[C@H](C)NC(=O)CSC[C@@H](C(=O)NCCOCCOCCOCCOCCOCCOCCOCCOCCC(=O)NCCOCCOCCOCCOCCOCCOCCOCCOCCC(=O)N[C@@H](CC(=O)O)C(=O)N[C@H]2CSSC[C@@H](C(=O)N[C@H](C(=O)O)[C@@H](C)O)NC(=O)[C@H](Cc3c[nH]c4ccccc34)NC(=O)[C@H](C(C)C)NC(=O)[C@H](CC(C)C)NC(=O)[C@H](CCC(=O)O)NC(=O)CNC(=O)[C@H](CC(C)C)NC(=O)[C@H](Cc3c[nH]cn3)NC(=O)[C@H](Cc3c[nH]c4ccccc34)NC(=O)[C@H](C)NC2=O)NC(=O)[C@H](CC(=O)O)NC(=O)[C@H](CCCCC)NC(=O)[C@H](Cc2ccc(-c3ccccc3)cc2)NC(=O)[C@H](CC(C)C)NC(=O)[C@H](C(C)C)NC(=O)[C@H](CCC(N)=O)NC(=O)[C@H](CC(=O)O)NC(=O)[C@H](Cc2c[nH]cn2)NC(=O)[C@H](Cc2ccc(O)cc2)NC1=O` [I-41], the “Luminescence, ADCC reporter assay” value in assay [1] (compound 0.3 nM) is 4814 RLU and 4964 RLU; in assay [1] (compound 1 nM) it was 6793 RLU and 6656 RLU; in assay [1] (compound 3 nM), 15011 RLU and 15516 RLU; in assay [1] (compound 10 nM), 26140 RLU and 28413 RLU; in assay [1] (compound 30 nM), 35410 RLU and 36310 RLU; in assay [1] (compound 100 nM) it was 40904 RLU and 39344 RLU. Further, the “Luminescence, ADCC reporter assay” value is 38409 RLU and 39619 RLU in assay [1] (compound 300 nM); 29516 RLU and 26828 RLU in assay [1] (compound 1000 nM). For the same molecule, the “MFI, recruitment” value in the assay with Daudi cells (compound 0.03 nM) was 4489 and 2739; in the assay with Daudi cells (compound 0.1 nM), 7612 and 4790; in the assay with Daudi cells (compound 0.3 nM), 3076 and 2422; in the assay on Daudi cells (compound 1 nM) it was 5751 and 3841; in the assay with Daudi cells (compound 3 nM) it was 5283 and 6064; with Daudi cells (compound 10 nM) it was 9033 and 5065. For the same molecule, the “MFI, recruitment” value in the assay with Daudi cells (compound 30 nM) is 10036 and 10734; in the assay with Daudi cells (compound 100 nM), 19188 and 14043; in the assay with Daudi cells (compound 300 nM), 23096 and 16482; in the assay on Daudi cells (compound 1000 nM) it was 13982 and 11893; in the assay with Daudi cells (compound 3000 nM), 18339 and 21903.

B1: I-28 (peptide, part only; not given: PEG8 unit, part only)
peptide: [d(γGlu)][d(γGlu)][dE](12Ado)[d(γGlu)][d(γGlu)]GGDCAWHLGELVWCT
modifications: disulfide 9-19; not fully specified (N-terminus); also: N-terminal PEG8 joins a further peptide chain not given here
As for B1, in assay [2], the MFI at 1 nM is 216 and 385; the MFI at 3 nM is 400 and 751; the MFI at 10 nM is 1970 and 1940; the MFI at 30 nM was 4030 and 4740. Further, in assay [2], the MFI at 100 nM is 5110 and 5380; the MFI at 300 nM is 6240 and 5320; the MFI at 1000 nM was 5150 and 5380; the MFI at 3000 nM is 5220 and 5330.
